We go through 21 compounds from patent US7981903B2, “2-[2-{phenylamino}-1H-pyrrolo[2,3-D]pyrimidin-4-yl)amino] benzamide derivatives as IGF-1R inhibitors for the treatment of cancer” (GlaxoSmithKline LLC, priority 2007, dated 2011).

The structures appear in SMILES notation. “And” between values parts separate entries of the source, which are not always exact repeats. Equal values may be shown once. Where only a bound is given, the exact number is not on record here.

The term IC50 denotes the midpoint of a concentration-inhibition curve. A high value points to lower potency.

The test system of one test is NCI-H929. Briefly: Inhibition of cell proliferation (CellTiter-Glo or InCell analyzer), NCI-H929. The note with it: Homo sapiens, 72 h / 3 days, values given as IC50 category. The format is cell-based. Summed up: In one
For test [1], the target named is T1, NIH-3T3 cells overexpressing human IGF-1R (Homo sapiens, UniProt P08069).
T1 construct: expressed in transfected cells; host or cells: NIH-3T3 (mouse fibroblasts)
The test is described as follows: IGF-1R cellular autophosphorylation (DELFIA). It counts as cell-based. Summed up:
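Receptor autophosphorylation measured by DELFIA, capturing IGF-1R or IRβ and detecting with europium anti-pTyr, reported as percent of IGF-1- or insulin-stimulated signal. Compounds (30 uM to 1.5 nM) added 2 h before ligand, then 15 min stimulation (IGF-1 30 ng/ml or insulin 3 ug/ml).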

Another test addresses ALK (Homo sapiens, UniProt Q9UM73). Briefly: ALK enzyme assay (HTRF). The format is biochemical. The note with it: 0.25 nM ALK, 15.0 μM ATP, values given as pIC50 category. Summed up:
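Isolated ALK phosphorylates a biotinylated tyrosine peptide, 120 min at 20° C; anti-phosphotyrosine Eu-cryptate/streptavidin-XL665 HTRF read after 60 min with EDTA-containing detection mix.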
On the technique in general: Time-resolved FRET reads energy transfer from a long-lived donor to a nearby acceptor.

Sequence of ALK (Q9UM73 19-1620): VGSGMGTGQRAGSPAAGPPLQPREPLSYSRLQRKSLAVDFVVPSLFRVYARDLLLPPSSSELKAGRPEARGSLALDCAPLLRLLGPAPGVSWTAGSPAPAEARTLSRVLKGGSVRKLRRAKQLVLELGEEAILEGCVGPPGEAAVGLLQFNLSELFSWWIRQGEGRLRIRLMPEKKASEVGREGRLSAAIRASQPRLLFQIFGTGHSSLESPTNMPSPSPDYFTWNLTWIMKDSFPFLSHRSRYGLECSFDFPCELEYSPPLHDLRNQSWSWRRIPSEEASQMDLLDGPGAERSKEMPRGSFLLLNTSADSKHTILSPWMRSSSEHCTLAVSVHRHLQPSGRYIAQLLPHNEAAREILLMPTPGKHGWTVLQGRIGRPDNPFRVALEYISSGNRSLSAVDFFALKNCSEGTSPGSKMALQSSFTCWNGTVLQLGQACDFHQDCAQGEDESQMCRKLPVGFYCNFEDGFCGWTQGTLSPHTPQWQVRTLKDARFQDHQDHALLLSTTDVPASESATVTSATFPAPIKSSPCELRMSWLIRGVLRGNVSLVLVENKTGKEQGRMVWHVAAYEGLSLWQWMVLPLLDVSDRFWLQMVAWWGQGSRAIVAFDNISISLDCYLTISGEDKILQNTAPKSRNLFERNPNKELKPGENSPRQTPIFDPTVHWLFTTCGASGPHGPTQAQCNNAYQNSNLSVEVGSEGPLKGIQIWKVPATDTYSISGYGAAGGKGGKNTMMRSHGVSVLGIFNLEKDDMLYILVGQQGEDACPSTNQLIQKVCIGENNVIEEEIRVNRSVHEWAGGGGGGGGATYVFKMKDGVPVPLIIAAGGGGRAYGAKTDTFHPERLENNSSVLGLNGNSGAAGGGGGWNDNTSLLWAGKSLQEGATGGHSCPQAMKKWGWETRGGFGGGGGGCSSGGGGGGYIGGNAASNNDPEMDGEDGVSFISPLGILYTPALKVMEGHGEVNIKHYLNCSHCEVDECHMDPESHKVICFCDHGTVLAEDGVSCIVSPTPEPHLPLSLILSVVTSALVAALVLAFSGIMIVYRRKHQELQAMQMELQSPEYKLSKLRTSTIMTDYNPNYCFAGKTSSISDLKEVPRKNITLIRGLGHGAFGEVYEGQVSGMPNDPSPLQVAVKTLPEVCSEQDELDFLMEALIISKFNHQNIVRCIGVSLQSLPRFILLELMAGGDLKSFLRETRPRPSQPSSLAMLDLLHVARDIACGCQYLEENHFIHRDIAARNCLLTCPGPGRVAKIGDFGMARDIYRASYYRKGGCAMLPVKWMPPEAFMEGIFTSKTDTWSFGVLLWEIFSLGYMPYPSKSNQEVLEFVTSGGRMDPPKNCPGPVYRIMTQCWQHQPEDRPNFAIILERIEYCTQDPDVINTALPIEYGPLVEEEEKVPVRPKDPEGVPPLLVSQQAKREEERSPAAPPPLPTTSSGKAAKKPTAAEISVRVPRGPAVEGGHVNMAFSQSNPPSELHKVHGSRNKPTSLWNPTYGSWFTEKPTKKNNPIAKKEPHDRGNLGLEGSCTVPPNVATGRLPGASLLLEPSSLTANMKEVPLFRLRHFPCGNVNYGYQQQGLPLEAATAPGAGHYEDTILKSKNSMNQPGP
T1 sequence (P08069 31-1367): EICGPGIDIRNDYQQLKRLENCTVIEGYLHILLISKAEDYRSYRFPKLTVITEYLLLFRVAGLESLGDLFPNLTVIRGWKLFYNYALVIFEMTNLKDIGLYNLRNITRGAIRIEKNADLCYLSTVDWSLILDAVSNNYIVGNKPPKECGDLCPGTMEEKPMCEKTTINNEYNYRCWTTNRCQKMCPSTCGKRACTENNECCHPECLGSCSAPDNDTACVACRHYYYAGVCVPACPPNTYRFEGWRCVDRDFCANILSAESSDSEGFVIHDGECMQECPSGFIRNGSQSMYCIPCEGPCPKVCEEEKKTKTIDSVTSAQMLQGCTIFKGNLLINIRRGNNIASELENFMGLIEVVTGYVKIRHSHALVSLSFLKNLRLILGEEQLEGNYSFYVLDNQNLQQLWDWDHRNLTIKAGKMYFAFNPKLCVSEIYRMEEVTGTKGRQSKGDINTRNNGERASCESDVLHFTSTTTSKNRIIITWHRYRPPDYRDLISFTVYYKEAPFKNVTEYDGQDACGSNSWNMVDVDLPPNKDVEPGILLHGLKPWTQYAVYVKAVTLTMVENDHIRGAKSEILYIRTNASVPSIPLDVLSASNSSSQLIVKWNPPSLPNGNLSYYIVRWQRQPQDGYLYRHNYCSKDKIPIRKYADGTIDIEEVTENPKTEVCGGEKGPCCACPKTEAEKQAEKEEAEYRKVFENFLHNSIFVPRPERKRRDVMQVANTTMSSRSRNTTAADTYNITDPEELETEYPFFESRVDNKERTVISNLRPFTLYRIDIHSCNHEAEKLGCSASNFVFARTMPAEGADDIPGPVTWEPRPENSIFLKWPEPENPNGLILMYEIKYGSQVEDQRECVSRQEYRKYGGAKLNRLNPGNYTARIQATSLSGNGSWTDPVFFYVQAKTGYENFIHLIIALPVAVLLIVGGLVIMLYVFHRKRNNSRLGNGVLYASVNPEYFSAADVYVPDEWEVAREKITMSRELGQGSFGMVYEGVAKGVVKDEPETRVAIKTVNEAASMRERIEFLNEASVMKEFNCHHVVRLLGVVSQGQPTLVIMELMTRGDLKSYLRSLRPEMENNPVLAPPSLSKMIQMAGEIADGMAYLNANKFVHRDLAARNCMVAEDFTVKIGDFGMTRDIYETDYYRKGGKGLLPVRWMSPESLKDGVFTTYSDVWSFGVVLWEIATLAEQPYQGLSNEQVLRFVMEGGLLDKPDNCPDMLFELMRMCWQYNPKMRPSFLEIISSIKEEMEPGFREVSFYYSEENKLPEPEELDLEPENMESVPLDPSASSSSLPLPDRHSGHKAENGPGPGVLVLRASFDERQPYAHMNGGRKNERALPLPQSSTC

Regarding `CNC(=O)c1c(F)cccc1Nc1nc(Nc2cc3c(cc2OC)CCCN3C(=O)CN2CCCCC2)nc2[nH]ccc12` [Example 217, 2-fluoro-N-methyl-6-[(2-{[6-(methyloxy)-1-(1-piperidinylacetyl)-1,2,3,4-tetrahydro-7-quinolinyl]amino}-1H-pyrrolo[2,3-d]pyrimidin-4-yl)amino]benzamide], the concentration for half-maximal inhibition (IC50) was < 250 nM in the test on NCI-H929, < 100 nM in test [1] and 5.01 to 200 nM against ALK.
For `CCCN1CCC(c2ccc(Nc3nc(Nc4cc(F)ccc4C(N)=O)c4cc[nH]c4n3)c(OC)c2)CC1` [Example 73, 4-fluoro-2-[(2-{[2-(methyloxy)-4-(1-propyl-4-piperidinyl)phenyl]amino}-1H-pyrrolo[2,3-d]pyrimidin-4-yl)amino]benzamide], in that order: < 250 nM, < 100 nM and 0.251 to 1 nM.
As for `COc1cc(C2CCN(C(C)C)CC2)ccc1Nc1nc(Nc2cc(F)c(F)cc2C(N)=O)c2cc[nH]c2n1` [Example 97, 4,5-difluoro-2-[(2-{[4-[1-(1-methylethyl)-4-piperidinyl]-2-(methyloxy)phenyl]amino}-1H-pyrrolo[2,3-d]pyrimidin-4-yl)amino]benzamide], the figures for the IC50 (in the test with NCI-H929; in test [1]; against ALK) were < 250 nM, < 100 nM and 0.251 to 1 nM, respectively.
For `COc1cc2c(cc1Nc1nc(Nc3cc(F)cc(F)c3C(N)=O)c3cc[nH]c3n1)CN(CCF)CC2` [Example 239, 2,4-difluoro-6-[(2-{[2-(2-fluoroethyl)-6-(methyloxy)-1,2,3,4-tetrahydro-7-isoquinolinyl]amino}-1H-pyrrolo[2,3-d]pyrimidin-4-yl)amino]benzamide], in that order: 250 to 1000 nM, > 500 nM and 1.26 to 3.98 nM.
Regarding `COc1cc(N2CCN(C(C)C)CC2)ccc1Nc1nc(Nc2ccc(F)c(F)c2C(N)=O)c2cc[nH]c2n1` [Example 94, 2,3-difluoro-6-[(2-{[4-[4-(1-methylethyl)-1-piperazinyl]-2-(methyloxy)phenyl]amino}-1H-pyrrolo[2,3-d]pyrimidin-4-yl)amino]benzamide], the values for the half-maximal inhibitory concentration (IC50) (in the test with NCI-H929; in test [1]; on ALK) were < 250 nM, 100 to 500 nM and 0.251 to 1 nM, respectively.
`CCCN(C)CC(=O)N1CCc2cc(OC)c(Nc3nc(Nc4cccc(F)c4C(=O)NC)c4cc[nH]c4n3)cc21` [Example 167, 2-fluoro-N-methyl-6-[(2-{[5-(methyloxy)-1-(N-methyl-N-propylglycyl)-2,3-dihydro-1H-indol-6-yl]amino}-1H-pyrrolo[2,3-d]pyrimidin-4-yl)amino]benzamide]: the half-maximal inhibitory concentration (IC50) in the test with NCI-H929 was < 250 nM; in test [1] it was 100 to 500 nM; at ALK it was 1.26 to 3.98 nM and 0.251 to 1 nM.
As for `CCCN1CCC=C(c2ccc(Nc3nc(Nc4cc(F)ccc4C(N)=O)c4cc[nH]c4n3)c(OC)c2)C1` [Example 70, 4-fluoro-2-[(2-{[2-(methyloxy)-4-(1-propyl-1,2,5,6-tetrahydro-3-pyridinyl)phenyl]amino}-1H-pyrrolo[2,3-d]pyrimidin-4-yl)amino]benzamide], the IC50 was < 250 nM in the test on NCI-H929, < 100 nM in test [1] and 0.251 to 1 nM against ALK.
The matching figures for `CNC(=O)c1c(F)cccc1Nc1nc(Nc2cc3c(cc2OC)CCN3C(=O)CN(C)C)nc2[nH]cc(F)c12` [Example 253, 2-[(2-{[1-(N,N-dimethylglycyl)-5-(methyloxy)-2,3-dihydro-1H-indol-6-yl]amino}-5-fluoro-1H-pyrrolo[2,3-d]pyrimidin-4-yl)amino]-6-fluoro-N-methylbenzamide]: 250 to 1000 nM, 100 to 500 nM and 0.251 to 1 nM.
For `COc1cc(N2CCN(CCS(C)(=O)=O)CC2)c(C)cc1Nc1nc(Nc2cccc(F)c2C(N)=O)c2cc[nH]c2n1` [Example 52, 2-fluoro-6-({2-[(5-methyl-2-(methyloxy)-4-{4-[2-(methylsulfonyl)ethyl]-1-piperazinyl}phenyl)amino]-1H-pyrrolo[2,3-d]pyrimidin-4-yl}amino)benzamide], in that order: 250 to 1000 nM, < 100 nM and 1.26 to 3.98 nM.
For `COc1cc(N2CCN(C(C)C)CC2)ccc1Nc1nc(Nc2cccc(F)c2C(N)=O)c2cc[nH]c2n1` [Example 46, 2-fluoro-6-[(2-{[4-[4-(1-methylethyl)-1-piperazinyl]-2-(methyloxy)phenyl]amino}-1H-pyrrolo[2,3-d]pyrimidin-4-yl)amino]benzamide], in that order: < 250 nM, 100 to 500 nM and 0.251 to 1 nM.
As for `COc1cc(N2CCC(N3CCN(CCS(C)(=O)=O)CC3)CC2)ccc1Nc1nc(Nc2cccc(F)c2C(N)=O)c2cc[nH]c2n1` [Example 115, 2-fluoro-6-[(2-{[2-(methyloxy)-4-(4-{4-[2-(methylsulfonyl)ethyl]-1-piperazinyl}-1-piperidinyl)phenyl]amino}-1H-pyrrolo[2,3-d]pyrimidin-4-yl)amino]benzamide], the values for the IC50 (with NCI-H929; in test [1]; on ALK) were < 250 nM, 100 to 500 nM and 0.251 to 1 nM, respectively.
With `COc1cc2c(cc1Nc1nc(Nc3cc(F)cc(F)c3C(=O)NC(C)C)c3cc[nH]c3n1)N(C(=O)CN(C)C)CC2` [Example 153, 2-[(2-{[1-(N,N-dimethylglycyl)-5-(methyloxy)-2,3-dihydro-1H-indol-6-yl]amino}-1H-pyrrolo[2,3-d]pyrimidin-4-yl)amino]-4,6-difluoro-N-(1-methylethyl)benzamide], the IC50 in the test on NCI-H929 was > 1000 nM; in test [1], 100 to 500 nM; against ALK, 0.251 to 1 nM.
As to `CCCN1CCC(COc2ccc(Nc3nc(Nc4cccc(F)c4C(N)=O)c4cc[nH]c4n3)c(OC)c2)CC1` [Example 206, 2-fluoro-6-({2-[(2-(methyloxy)-4-{[(1-propyl-4-piperidinyl)methyl]oxy}phenyl)amino]-1H-pyrrolo[2,3-d]pyrimidin-4-yl}amino)benzamide], the IC50 in the test on NCI-H929 was < 250 nM; in test [1] it was 100 to 500 nM; on ALK it was 1.26 to 3.98 nM.
In the case of `CCNC(=O)c1c(F)cccc1Nc1nc(Nc2cc3c(cc2OC)CCN3C(=O)CN(C)C)nc2[nH]ccc12` [Example 126, 2-[(2-{[1-(N,N-dimethylglycyl)-5-(methyloxy)-2,3-dihydro-1H-indol-6-yl]amino}-1H-pyrrolo[2,3-d]pyrimidin-4-yl)amino]-N-ethyl-6-fluorobenzamide], the results for the IC50 (with NCI-H929; in test [1]; against ALK) were < 250 nM, 100 to 500 nM and 0.251 to 1 nM, respectively.
For `CCCN1CCC(c2ccc(Nc3nc(Nc4cc(F)c(F)cc4C(N)=O)c4cc[nH]c4n3)c(OC)c2)CC1` [Example 98, 4,5-difluoro-2-[(2-{[2-(methyloxy)-4-(1-propyl-4-piperidinyl)phenyl]amino}-1H-pyrrolo[2,3-d]pyrimidin-4-yl)amino]benzamide], in that order: < 250 nM, < 100 nM and 0.251 to 1 nM.
Take `CNC(=O)c1c(F)cccc1Nc1nc(Nc2cc3c(cc2OC)N(C(=O)CN(C)C)CC3)nc2[nH]ccc12` [Example 198, 2-[(2-{[1-(N,N-dimethylglycyl)-6-(methyloxy)-2,3-dihydro-1H-indol-5-yl]amino}-1H-pyrrolo[2,3-d]pyrimidin-4-yl)amino]-6-fluoro-N-methylbenzamide]: the values for the IC50 (with NCI-H929; in test [1]; against ALK) were 250 to 1000 nM, > 500 nM and 1.26 to 3.98 nM, respectively.
For `Cc1cc2c(cc1Nc1nc(Nc3cccc(F)c3C(N)=O)c3cc[nH]c3n1)N(C(=O)CN(C)C)CCC2` [Example 246, 2-[(2-{[1-(N,N-dimethylglycyl)-6-methyl-1,2,3,4-tetrahydro-7-quinolinyl]amino}-1H-pyrrolo[2,3-d]pyrimidin-4-yl)amino]-6-fluorobenzamide], in that order: < 250 nM, 100 to 500 nM and 5.01 to 200 nM.
The matching figures for `COc1cc2c(cc1Nc1nc(Nc3cccc(F)c3C(N)=O)c3cc[nH]c3n1)CCN2C(=O)CN(C)C` [Example 197, 2-[(2-{[1-(N,N-dimethylglycyl)-6-(methyloxy)-2,3-dihydro-1H-indol-5-yl]amino}-1H-pyrrolo[2,3-d]pyrimidin-4-yl)amino]-6-fluorobenzamide]: < 250 nM, 100 to 500 nM and 1.26 to 3.98 nM.
The matching figures for `CNC(=O)c1c(F)cccc1Nc1nc(Nc2cc3c(cc2OC)C(C)(C)CN3C(=O)CN(C)C)nc2[nH]ccc12` [Example 127, 2-[(2-{[1-(N,N-dimethylglycyl)-3,3-dimethyl-5-(methyloxy)-2,3-dihydro-1H-indol-6-yl]amino}-1H-pyrrolo[2,3-d]pyrimidin-4-yl)amino]-6-fluoro-N-methylbenzamide]: < 250 nM, < 100 nM and 0.251 to 1 nM.
As to `COc1cc(N2CCN(C(C)C)CC2)ccc1Nc1nc(Nc2cc(Cl)cc(F)c2C(N)=O)c2cc[nH]c2n1` [Example 93, 4-chloro-2-fluoro-6-[(2-{[4-[4-(1-methylethyl)-1-piperazinyl]-2-(methyloxy)phenyl]amino}-1H-pyrrolo[2,3-d]pyrimidin-4-yl)amino]benzamide], the IC50 in the test on NCI-H929 is < 250 nM; in test [1] it was 100 to 500 nM; on ALK, 0.251 to 1 nM.
`COc1cc(N2CCN(CC3CC3)CC2)ccc1Nc1nc(Nc2cc(F)ccc2C(N)=O)c2cc[nH]c2n1` [Example 81, 2-[(2-{[4-[4-(cyclopropylmethyl)-1-piperazinyl]-2-(methyloxy)phenyl]amino}-1H-pyrrolo[2,3-d]pyrimidin-4-yl)amino]-4-fluorobenzamide]: the values for the IC50 (in the test with NCI-H929; in test [1]; against ALK) were < 250 nM, < 100 nM and 0.251 to 1 nM, respectively.
